Measured values published in patent US20240270821A1, “GIP/GLP1/GCG TRI-RECEPTOR AGONISTS AND USES THEREOF” (priority 2023, published 2024).
Like-named read-outs stand apart in the source and are kept apart here. Marks after values point to notes of the source that are not given here. Starred links: 1 amine or outer side, 2 acyl side, 3 side chain; linkers in the order of their positions; H or OH if unused. Non-standard residues stand in square brackets, D forms with d. Residues, ends and D or L forms follow the SMILES beside them. Groups on a side chain read outwards from the residue. No end group written: not given here. *: point of attachment. C18 diacid = O=C(O)CCCCCCCCCCCCCCCCC(=O)*; αMePhe(2-F) = C[C@](N)(Cc1ccccc1F)C(=O)O; γGlu = O=C(O)[C@H](CCC(=O)[*:2])N[*:1]; αMe4Pal = C[C@](N)(Cc1ccncc1)C(=O)O; αMeY = C[C@](N)(Cc1ccc(O)cc1)C(=O)O; 4Pal = N[C@@H](Cc1ccncc1)C(=O)O; αMeL = CC(C)C[C@](C)(N)C(=O)O; αMeS = C[C@](N)(CO)C(=O)O; Orn = NCCC[C@H](N)C(=O)O; AEEA = NCCOCCOCC(=O)O; Aib = CC(C)(N)C(=O)O

Assays:
hGIPR [1] = target: T1, hGIPR (Homo sapiens, UniProt P48546); assay: Functional cAMP activity in the presence of 1% HSA; assay type: cell-based; conditions: read-out: cAMP Rel EC50, hGIPR
T1 sequence (P48546 22-466): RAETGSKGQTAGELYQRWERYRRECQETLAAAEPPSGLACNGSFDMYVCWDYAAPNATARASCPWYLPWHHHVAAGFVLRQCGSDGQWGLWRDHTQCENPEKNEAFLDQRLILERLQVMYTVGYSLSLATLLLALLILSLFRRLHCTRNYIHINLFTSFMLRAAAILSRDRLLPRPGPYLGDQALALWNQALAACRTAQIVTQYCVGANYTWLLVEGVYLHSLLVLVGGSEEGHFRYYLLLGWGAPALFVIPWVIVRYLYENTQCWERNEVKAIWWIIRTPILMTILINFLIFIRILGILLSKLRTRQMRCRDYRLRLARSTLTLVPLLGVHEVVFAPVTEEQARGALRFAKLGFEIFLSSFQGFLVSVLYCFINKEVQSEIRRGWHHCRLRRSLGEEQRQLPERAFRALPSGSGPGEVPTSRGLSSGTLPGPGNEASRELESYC

hGLP-1R [2] = target: T2, hGLP-1R (Homo sapiens, UniProt P43220); assay: Functional cAMP activity in the presence of 1% HSA; assay type: cell-based; conditions: read-out: cAMP Rel EC50, hGLP-1R
T2 sequence (P43220 24-463): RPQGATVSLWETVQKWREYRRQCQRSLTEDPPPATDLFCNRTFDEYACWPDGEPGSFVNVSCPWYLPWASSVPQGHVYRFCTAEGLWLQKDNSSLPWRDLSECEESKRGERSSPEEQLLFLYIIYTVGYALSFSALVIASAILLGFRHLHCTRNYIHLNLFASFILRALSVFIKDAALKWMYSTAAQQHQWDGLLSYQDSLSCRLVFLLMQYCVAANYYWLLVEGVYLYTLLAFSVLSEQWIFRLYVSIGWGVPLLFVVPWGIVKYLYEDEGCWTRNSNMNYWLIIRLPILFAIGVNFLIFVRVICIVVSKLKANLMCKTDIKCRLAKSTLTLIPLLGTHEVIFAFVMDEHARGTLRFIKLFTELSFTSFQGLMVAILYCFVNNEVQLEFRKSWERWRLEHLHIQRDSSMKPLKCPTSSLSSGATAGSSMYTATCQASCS

human GcgR = human GcgR (Homo sapiens, UniProt P47871); assay: Functional cAMP activity in the presence of 1% HSA; assay type: cell-based; conditions: read-out: cAMP Rel EC50, hGcgR
human GcgR, sequence (P47871 26-477): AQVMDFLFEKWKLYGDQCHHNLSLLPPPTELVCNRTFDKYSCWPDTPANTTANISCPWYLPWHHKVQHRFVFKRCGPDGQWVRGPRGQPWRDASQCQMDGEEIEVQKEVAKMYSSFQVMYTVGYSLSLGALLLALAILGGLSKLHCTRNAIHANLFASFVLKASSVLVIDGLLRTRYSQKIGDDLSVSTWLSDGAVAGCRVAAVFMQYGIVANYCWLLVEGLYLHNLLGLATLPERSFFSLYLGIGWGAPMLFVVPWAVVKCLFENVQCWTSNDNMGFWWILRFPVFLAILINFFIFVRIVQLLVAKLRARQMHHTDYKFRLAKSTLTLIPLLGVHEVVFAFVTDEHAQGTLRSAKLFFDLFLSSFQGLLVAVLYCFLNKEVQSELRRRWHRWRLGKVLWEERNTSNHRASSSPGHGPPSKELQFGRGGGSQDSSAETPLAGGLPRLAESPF

hGIPR [3] = target: T1, hGIPR; assay: Functional cAMP activation in the presence of 0.1% casein (no HSA); assay type: cell-based; conditions: read-out: Relative cAMP EC50, hGIPR;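 as to Relative cAMP EC50, hGIPR: intracellular cAMP rise after 30 min at 37 °C read by HTRF against a standard curve, scaled between buffer alone (0%) and top control ligand concentration (100%), four-parameter fit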;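 as to Relative cAMP EC50, hGLP-1R: intracellular cAMP rise after 30 min at 37 °C read by HTRF, normalized between buffer only (0%) and maximal control ligand (100%), four-parameter variable-slope fit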;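 as to Relative cAMP EC50, hGcgR: intracellular cAMP rise after 30 min at 37 °C, read by HTRF against a cAMP standard curve, scaled from buffer only (0%) to maximal control ligand response (100%)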
hGLP-1R [4] = target: T2, hGLP-1R; assay: as above; assay type: cell-based; conditions: read-out: Relative cAMP EC50, hGLP-1R
hGcgR = hGcgR (Homo sapiens, UniProt P47871); assay: as above; assay type: cell-based; conditions: read-out: Relative cAMP EC50, hGcgR;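 also: intracellular cAMP rise after 30 min at 37 °C, read by HTRF against a cAMP standard curve, scaled from buffer only (0%) to maximal control ligand response (100%)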
hGcgR, sequence (P47871 26-477): as above

in vivo = assay: in vivo; design: species or system Sprague Dawley rats; conditions: male, Sprague Dawley, rat, 4 mg/kg
[5] = Body weight in diet-induced obese C57BL/6 mice; assay type: in vivo; conditions: 10 nmol/kg SC QD, percent of starting weight, DIO mice, mean ± SEM n=5
How it was run: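 Male C57BL/6 DIO mice (41-50 g, 5 per group, randomized by weight) on calorie-rich diet received subcutaneous doses 30-90 min before dark onset, QD or Q3D for 9-16 days. Body weight measured daily, expressed as percent of starting weight, mean±SEM.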

[6] = in the presence of 0.1% casein (no HSA), geometric mean

Row | Compound | EC50 (hGIPR [1]) [nM] | EC50 (hGLP-1R [2]) [nM] | EC50 (human GcgR) [nM] | EC50 (hGIPR [3]) [nM] | EC50 (hGLP-1R [4]) [nM] | EC50 (hGcgR) [nM] | CL/F (in vivo) [mL/min/kg] | half-life (in vivo) [h] | Body weight (%) ([5]; 9 days) | EC50 (hGIPR [3]; [6]) [nM] | EC50 (hGLP-1R [4]; [6]) [nM] | EC50 (hGcgR; [6]) [nM] | Body weight (%) ([5]; 14 days) | Body weight (%) ([5]; 15 days)
1 | H-Y[Aib]QGT[αMePhe(2-F)]TSD[4Pal][αMeS]I[αMeL]LD[Orn]K([AEEA-AEEA-γGlu-C18 diacid])AQ[Aib][Orn]FI[dE][αMeY]LIEGGPSSGAPEPSEG-NH2 [Example 472] | 0.927 | 7.88 | 229 | 0.015 | 0.171 | 2.73 | 7.33 | 9.4 | 76.13 ± 2.28 | – | – | – | – | –
2 | CC[C@H](C)[C@H](NC(=O)[C@H](Cc1ccccc1)NC(=O)[C@H](C)NC(=O)C(C)(C)NC(=O)[C@H](CCC(N)=O)NC(=O)[C@H](C)NC(=O)[C@H](CCCCNC(=O)COCCOCCNC(=O)CC[C@H](NC(=O)CCCCCCCCCCCCCCCCC(=O)O)C(=O)O)NC(=O)[C@H](CCCCN)NC(=O)[C@H](CC(=O)O)NC(=O)[C@H](CC(C)C)NC(=O)[C@H](CC(C)C)NC(=O)[C@@H](NC(=O)[C@H](CO)NC(=O)[C@H](Cc1ccc(O)cc1)NC(=O)[C@H](CC(=O)O)NC(=O)[C@H](CO)NC(=O)[C@@H](NC(=O)[C@](C)(Cc1ccccc1F)NC(=O)[C@@H](NC(=O)CNC(=O)[C@H](CCC(N)=O)NC(=O)C(C)(C)NC(=O)[C@@H](N)Cc1ccc(O)cc1)[C@@H](C)O)[C@@H](C)O)[C@@H](C)CC)C(=O)N[C@@H](CCC(=O)O)C(=O)N[C@@H](Cc1ccc(O)cc1)C(=O)N[C@@H](CC(C)C)C(=O)N[C@@H](CCC(=O)O)C(=O)N[C@@H](CCC(=O)O)C(=O)NCC(=O)NCC(=O)N1CCC[C@H]1C(=O)N[C@@H](CO)C(=O)N[C@@H](CO)C(=O)NCC(=O)N[C@@H](C)C(=O)N1CCC[C@H]1C(=O)N1CCC[C@H]1C(=O)N1CCC[C@H]1C(=O)N[C@@H](CO)C(N)=O [Example 387] (H-Y[Aib]QGT[αMePhe(2-F)]TSDYSILLDKK([AEEA-γGlu-C18 diacid])AQ[Aib]AFIEYLEEGGPSSGAPPPS-NH2) | 5.64 | 26.5 | 184 | – | – | – | 14 | 9.2 | – | 0.0276 | 0.255 | 2.14 | – | –
3 | H-Y[Aib]QGT[αMePhe(2-F)]TSD[4Pal]SI[αMeL]LD[Orn]K([AEEA-γGlu-C18 diacid])AQ[αMe4Pal][Orn]FI[dE][αMeY]LIEGGPSSGEPPPEEG-NH2 [Example 475] | 1.85 | 18.6 | 254 | 0.0173 | 0.254 | 2.24 | 3.5 | 13.7 | 69.34 ± 2.99 | – | – | – | – | –
4 | CC[C@H](C)[C@H](NC(=O)[C@H](Cc1ccccc1)NC(=O)[C@H](CCCN)NC(=O)C(C)(C)NC(=O)[C@H](CCC(N)=O)NC(=O)[C@H](C)NC(=O)[C@H](CCCCNC(=O)COCCOCCNC(=O)CC[C@H](NC(=O)CCCCCCCCCCCCCCCCC(=O)O)C(=O)O)NC(=O)[C@H](CCCN)NC(=O)[C@H](CC(=O)O)NC(=O)[C@H](CC(C)C)NC(=O)[C@](C)(CC(C)C)NC(=O)[C@@H](NC(=O)[C@](C)(CO)NC(=O)[C@H](Cc1ccc(O)cc1)NC(=O)[C@H](CC(=O)O)NC(=O)[C@H](CO)NC(=O)[C@@H](NC(=O)[C@](C)(Cc1ccccc1F)NC(=O)[C@@H](NC(=O)CNC(=O)[C@H](CCC(N)=O)NC(=O)C(C)(C)NC(=O)[C@@H](N)Cc1ccc(O)cc1)[C@@H](C)O)[C@@H](C)O)[C@@H](C)CC)C(=O)N[C@H](CCC(=O)O)C(=O)N[C@@](C)(Cc1ccc(O)cc1)C(=O)N[C@@H](CC(C)C)C(=O)N[C@@H](CC(C)C)C(=O)N[C@@H](CCC(=O)O)C(=O)NCC(=O)NCC(=O)N1CCC[C@H]1C(=O)N[C@@H](CO)C(=O)N[C@@H](CO)C(=O)NCC(=O)N[C@@H](CCC(=O)O)C(=O)N1CCC[C@H]1C(=O)N1CCC[C@H]1C(=O)N1CCC[C@H]1C(=O)N[C@@H](CO)C(N)=O [Example 368] (H-Y[Aib]QGT[αMePhe(2-F)]TSDY[αMeS]I[αMeL]LD[Orn]K([AEEA-γGlu-C18 diacid])AQ[Aib][Orn]FI[dE][αMeY]LLEGGPSSGEPPPS-NH2) | 2.62 | 37.4 | 111 | – | – | – | 7.33 | 9.6 | – | 0.0121 | 0.242 | 0.481 | 52.52 +/− 2.49**** % | –

More lines, main results first:

Row | EC50 (hGIPR [1]) [nM] | EC50 (hGLP-1R [2]) [nM] | EC50 (human GcgR) [nM] | EC50 (hGIPR [3]) [nM] | EC50 (hGLP-1R [4]) [nM] | EC50 (hGcgR) [nM] | CL/F (in vivo) [mL/min/kg] | half-life (in vivo) [h] | Compound | Body weight (%) ([5]; 9 days) | EC50 (hGIPR [3]; [6]) [nM] | EC50 (hGLP-1R [4]; [6]) [nM] | EC50 (hGcgR; [6]) [nM] | Body weight (%) ([5]; 14 days) | Body weight (%) ([5]; 15 days)
5 | 1.89 | 12.1 | 138 | 0.0142 | 0.178 | 1.19 | 10.7 | 7.8 | Y[Aib]QGT[αMePhe(2-F)]TSD[4Pal][αMeS]I[αMeL]LD[Orn]K([AEEA-γGlu-C18 diacid])AQ[Aib][Orn]FI[dE][αMeY]LIEGGPSSGAPEPSEG-NH2 [Example 429] | 74.66 ± 3.87 | – | – | – | – | 70.20 ± 1.63
6 | 7.01 | 24.5 | 176 | – | – | – | 9.83 | 8.3 | CC[C@H](C)[C@H](NC(=O)[C@H](Cc1ccccc1)NC(=O)[C@H](C)NC(=O)C(C)(C)NC(=O)[C@H](CCC(N)=O)NC(=O)[C@H](C)NC(=O)[C@H](CCCCNC(=O)COCCOCCNC(=O)CC[C@H](NC(=O)CCCCCCCCCCCCCCCCC(=O)O)C(=O)O)NC(=O)[C@H](CCCN)NC(=O)[C@H](CC(=O)O)NC(=O)[C@H](CC(C)C)NC(=O)[C@](C)(CC(C)C)NC(=O)[C@@H](NC(=O)[C@](C)(CO)NC(=O)[C@H](Cc1ccc(O)cc1)NC(=O)[C@H](CC(=O)O)NC(=O)[C@H](CO)NC(=O)[C@@H](NC(=O)[C@](C)(Cc1ccccc1F)NC(=O)[C@@H](NC(=O)CNC(=O)[C@H](CCC(N)=O)NC(=O)C(C)(C)NC(=O)[C@@H](N)Cc1c[nH]cn1)[C@@H](C)O)[C@@H](C)O)[C@@H](C)CC)C(=O)N[C@H](CCC(=O)O)C(=O)N[C@@H](Cc1ccc(O)cc1)C(=O)N[C@@H](CC(C)C)C(=O)N[C@@H](CC(C)C)C(=O)N[C@@H](CCC(=O)O)C(=O)NCC(=O)NCC(=O)N1CCC[C@H]1C(=O)N[C@@H](CO)C(=O)N[C@@H](CO)C(=O)NCC(=O)N[C@@H](CCC(=O)O)C(=O)N1CCC[C@H]1C(=O)N1CCC[C@H]1C(=O)N1CCC[C@H]1C(=O)N[C@@H](CCC(=O)O)C(N)=O [Example 381] (H-H[Aib]QGT[αMePhe(2-F)]TSDY[αMeS]I[αMeL]LD[Orn]K([AEEA-γGlu-C18 diacid])AQ[Aib]AFI[dE]YLLEGGPSSGEPPPE-NH2) | – | 0.0156 | 0.157 | 1.39 | – | –
7 | 1.62 | 12.9 | 183 | 0.0148 | 0.204 | 1.69 | 10 | 11 | H-Y[Aib]QGT[αMePhe(2-F)]TSD[4Pal][αMeS]I[αMeL]LD[Orn]K([AEEA-γGlu-C18 diacid])AQ[Aib][Orn]FI[dE][αMeY]LIEGGPSSGEPPPEEG-NH2 [Example 462] | 73.68 ± 2.82 | – | – | – | – | –
8 | 1.71 | 12 | 111 | 0.0183 | 0.213 | 1.99 | 16.3 | 6.6 | H-Y[Aib]QGT[αMePhe(2-F)]TSD[4Pal][αMeS]I[αMeL]LD[Orn]K([AEEA-γGlu-C18 diacid])AQ[Aib][Orn]FI[dE][αMeY]LIEGGPSSGEPPPSEG-NH2 [Example 401] | – | – | – | – | – | 71.54 ± 3.32
